Laboratory results published in patent US6596289B1, “Anti-cellulite pantyhose” (priority 1998, dated 2003).

Assay: Extraction and measurement of candidate molecules from loaded pantyhose in buffer
Format: physicochemical
Details: for bonding to the fabric: conclusion from data of Table I; for Micrograms per/cm^2 @ 2 hr (amount extracted) / Micrograms per/cm @ 4 hr (amount extracted): swatch of treated fabric immersed in buffer solution; for Micrograms per/cm @ 4 hr (amount extracted): four hours
Procedure: Step 1: Determining UV Max Absorbance nm of Test Substances
Prepare 0.2% aqueous solutions of the substance to be tested, and run a UV/VIS scan on a scanning spectrophotometer. Note the peak absorbance level of the scan. The wave length at which this occurs is the UV Max value for that candidate.
Step 2: Running Standard Curves of Candidate Molecules
Prepare standards of the test substances at the following concentrations: 400 uM, 200 uM, 100 uM, 50 uM and 25 uM. Read at the appropriate wavelength. Plot the absorbance readings vs candidate concentration to check linearity.
Step 3: Loading Pantyhose with Candidate Molecules a. Wash pantyhose two times with water. b. Treat pantyhose with 1% solution of polyethylenimine (PEI) with constant agitation for 30 minutes. c. Wash pantyhose with water. d. Treat pantyhose with 0.2% of the test substance with constant agitation for three hours. e. Wash pantyhose and allow to dry.
Step 4: Extraction and Measurement of Candidate Molecules from Pantyhose Six sections were removed from each pair of hose, two sections from each of the foot, calf and thigh. A two piece, interlocking circular template was used. This template provided a way to obtain consistent sample size and also held the hose sections in position for sample extraction. Each template containing the pantyhose section was placed in 10 ml of buffer for 4 hours. An untreated pair of pantyhose was used as the blank and tested the same as the samples. At the end of two hours, and again at 4 hours, the buffer solution was read at the appropriate wave length using a quartz curette. Results were calculated from the standard curve and reported in micrograms/square centimeter (ug/cm^2).

Row | bonding to the fabric | Micrograms per/cm^2 @ 2 hr (amount extracted) [Micrograms per/cm^2] | Micrograms per/cm @ 4 hr (amount extracted) [Micrograms per/cm] | Structure (SMILES)
1 | bind in adequate degrees | 1.2 | 1.5 | O=C(O)CCCC[C@@H]1CCSS1 (racemic) [Lipoic Acid, lipoic acid]
2 | bind in adequate degrees | 0.6 | 0.7 | O=C1O[C@H]([C@@H](O)CO)C(O)=C1O [Ascorbic Acid, ascorbic acid]
3 | most strongly bonded | 15.0 | 15.1 | O=c1c(-c2ccc(O)cc2)coc2cc(O)cc(O)c12 [Genistein, 4′,5,7-trihydroxyisoflavone]
